# Target: T1, Dimer of Gag-Pol polyprotein [489-587] (Human immunodeficiency virus 1, UniProt P12497)
# T1 construct: 489-587
# Assay: Protease Inhibition Assay
# Settings: not given
# Procedure: For determination of IC50 values, HIV-1 protease was added to assay buffer containing inhibitor and the substrate (H-His-Lys-Ala-Arg-Val-Leu- (p-NO2) Phe-Glu-Ala-norleucine-Ser-NH2). The Leu- (p-NO2) Phe bond of the substrate was cleaved by the enzyme, and the substrate and products were separated by reversed-phase HPLC. Absorbance was measured at 220 nm, peak areas were determined, and percentage conversion to product was calculated.
row,SMILES,IC50 [nM]
1,"CCC(C)c1ccccc1SC1C(=O)CC(c2ccccc2)(c2ccccc2)OC1=O (stereo not drawn) [3-[(2-sec-Butylphenyl)sulfanyl]-5,6-dihydro-4-hydroxy-6,6-diphenyl-2H-pyran-2-one]",17
2,"CC(C)c1ccc(C(C)C)c(SC2C(=O)CC(CCc3ccccc3)(c3ccccc3)OC2=O)c1 (stereo not drawn) [5,6-Dihydro-4-hydroxy-6-phenyl-6-(2-phenylethyl)-3-[(2,5-diisopropylphenyl)sulfanyl]-2H-pyran-2-one]",14
3,"CN(CC1(c2ccccc2)CC(=O)C(SCCc2ccccc2)C(=O)O1)c1ccccc1 (stereo not drawn) [5,6-Dihydro-4-hydroxy-6-[(methylphenylamino)methyl]-6-phenyl-3-[(2-phenylethyl)thio]-2H-pyran-2-one]",2280
4,"Cc1ccc(C(C)C)c(SC2C(=O)CC(c3ccccc3)(c3ccccc3)OC2=O)c1 (stereo not drawn) [4-hydroxy-3-{[5-methyl-2-(propan-2-yl)phenyl]sulfanyl}-6,6-diphenyl-5,6-dihydro-2H-pyran-2-one]",38
5,"O=C1CC2(CCCc3ccccc32)OC(=O)C1SCc1ccccc1 (stereo not drawn) [3,4-Dihydro-4-hydroxy-5-[(phenylmethyl)thio]spiro[naphthalene-1(2H),2-[2H]pyran]-6 (3 H)-one]",2300
6,"CC(C)c1ccc(C(C)C)c(SC2C(=O)CC(c3ccccc3)(c3ccccc3)OC2=O)c1 (stereo not drawn) [3-{[2,5-bis(propan-2-yl)phenyl]sulfanyl}-4-hydroxy-6,6-diphenyl-5,6-dihydro-2H-pyran-2-one]",119
7,"NC(=O)CCCCC1(c2ccccc2)CC(=O)C(SCCc2ccccc2)C(=O)O1 (stereo not drawn) [5-{4-hydroxy-6-oxo-2-phenyl-5-[(2-phenylethyl)sulfanyl]-3,6-dihydro-2H-pyran-2-yl}pentanamide]",338
8,"O=C1CC2(CCCc3ccccc32)OC(=O)C1SCCc1ccccc1 (stereo not drawn) [3,4-Dihydro-4-hydroxy-5-[(2-phenylethyl)thio]-spiro[naphthalene-1(2H),2-[2H]pyran]-6 (3 H)-one]",1300
9,"CC(C)c1ccccc1SC1C(=O)CC(c2ccccc2)(c2ccccc2)OC1=O (stereo not drawn) [4-hydroxy-6,6-diphenyl-3-{[2-(propan-2-yl)phenyl]sulfanyl}-5,6-dihydro-2H-pyran-2-one]",23
10,"Cc1ccc(C(C)(C)C)c(SC2C(=O)CC(CCc3ccccc3)(c3ccccc3)OC2=O)c1 (stereo not drawn) [4-Hydroxy-5,6-dihydropyrone deriv. 49]",10
11,"CCCCCC1(CCCCC)CC(=O)C(SCc2ccccc2)C(=O)O1 (stereo not drawn) [3-(Benzylsulfanyl)-4-hydroxy-6,6-dipentyl-5,6-dihydro-pyran-2-one]",327
12,"CC(C)c1ccc(C(C)(C)C)c(SC2C(=O)CC(CCc3ccccc3)(c3ccccc3)OC2=O)c1 (stereo not drawn) [3-[(2-tert-Butyl-5-isopropylphenyl)sulfanyl]-5,6-dihydro-4-hydroxy-6-phenyl-6-(2-phenylethyl)-2H-pyran-2-one]",47
13,"O=C1CC(COc2ccccc2)(c2ccccc2)OC(=O)C1SCc1ccccc1 (stereo not drawn) [5,6-Dihydro-4-hydroxy-6-phenoxymethyl-6-phenyl-3-[(phenylmethyl)thio]-2H-pyran-2-one]",172
14,"Cc1ccccc1SC1C(=O)CC(c2ccccc2)(c2ccccc2)OC1=O (stereo not drawn) [4-hydroxy-3-[(2-methylphenyl)sulfanyl]-6,6-diphenyl-5,6-dihydro-2H-pyran-2-one]",388
15,"Cc1ccc(C(C)C)c(SC2C(=O)CC(CCc3ccccc3)(c3ccccc3)OC2=O)c1 (stereo not drawn) [4-hydroxy-3-{[5-methyl-2-(propan-2-yl)phenyl]sulfanyl}-6-phenyl-6-(2-phenylethyl)-5,6-dihydro-2H-pyran-2-one]",7
16,"CC(C)(C)c1ccccc1SC1C(=O)CC(CCc2ccccc2)(c2ccccc2)OC1=O (stereo not drawn) [3-[(2-tert-butylphenyl)sulfanyl]-4-hydroxy-6-phenyl-6-(2-phenylethyl)-5,6-dihydro-2H-pyran-2-one]",3
17,"Cc1ccc(C(C)C)c(SC2C(=O)C[C@@](CCc3ccccc3)(c3ccccc3)OC2=O)c1 (stereo partly drawn) [(6S)-4-hydroxy-3-{[5-methyl-2-(propan-2-yl)phenyl]sulfanyl}-6-phenyl-6-(2-phenylethyl)-5,6-dihydro-2H-pyran-2-one]",6
18,"Cc1ccc(C(C)(C)C)c(SC2C(=O)CC(c3ccccc3)(c3ccccc3)OC2=O)c1 (stereo not drawn) [3-[(2-tert-butyl-5-methylphenyl)sulfanyl]-4-hydroxy-6,6-diphenyl-5,6-dihydro-2H-pyran-2-one]",12
19,"CCC(C)c1ccccc1SC1C(=O)CC(CCc2ccccc2)(c2ccccc2)OC1=O (stereo not drawn) [3-{[2-(butan-2-yl)phenyl]sulfanyl}-4-hydroxy-6-phenyl-6-(2-phenylethyl)-5,6-dihydro-2H-pyran-2-one]",10
20,"Cc1ccc(C(C)C)c(SC2C(=O)C[C@](CCc3ccccc3)(c3ccccc3)OC2=O)c1 (stereo partly drawn) [(6R)-4-hydroxy-3-{[5-methyl-2-(propan-2-yl)phenyl]sulfanyl}-6-phenyl-6-(2-phenylethyl)-5,6-dihydro-2H-pyran-2-one]",130
21,"Cc1ccccc1SC1C(=O)CC(CCc2ccccc2)(c2ccccc2)OC1=O (stereo not drawn) [4-hydroxy-3-[(2-methylphenyl)sulfanyl]-6-phenyl-6-(2-phenylethyl)-5,6-dihydro-2H-pyran-2-one]",73

# Same assay, conditions: pH 4.7; 37 °C
row,SMILES,IC50 [nM]
1,"O=C1CC(c2ccccc2)OC(=O)C1SCc1ccccc1 (stereo not drawn) [5,6-Dihydro-4-hydroxy-6-phenyl-3-[(phenylmethyl)thio]-2H-pyran-2-one]",8900
2,"CCCCCC1(c2ccccc2)CC(=O)C(SCc2ccccc2)C(=O)O1 (stereo not drawn) [3-(benzylsulfanyl)-4-hydroxy-6-pentyl-6-phenyl-5,6-dihydro-2H-pyran-2-one]",124
3,"CCCC1(c2ccccc2)CC(=O)C(SCCc2ccccc2)C(=O)O1 (stereo not drawn) [5,6-Dihydro-4-hydroxy-6-phenyl-3-[(2-phenylethyl)thio]-6-propyl-2H-pyran-2-one]",5100
4,"CCCCCCC1(c2ccccc2)CC(=O)C(SCc2ccccc2)C(=O)O1 (stereo not drawn) [3-(benzylsulfanyl)-6-hexyl-4-hydroxy-6-phenyl-5,6-dihydro-2H-pyran-2-one]",180
5,"CC(C)CC1(c2ccccc2)CC(=O)C(SCc2ccccc2)C(=O)O1 (stereo not drawn) [3-(benzylsulfanyl)-4-hydroxy-6-(2-methylpropyl)-6-phenyl-5,6-dihydro-2H-pyran-2-one]",440
6,"CC(C)CCCC1(c2ccccc2)CC(=O)C(SCCc2ccccc2)C(=O)O1 (stereo not drawn) [4-hydroxy-6-(4-methylpentyl)-6-phenyl-3-[(2-phenylethyl)sulfanyl]-5,6-dihydro-2H-pyran-2-one]",155
7,"O=C1CC(CCc2ccccc2)(c2ccccc2)OC(=O)C1SCc1ccccc1 (stereo not drawn) [3-(benzylsulfanyl)-4-hydroxy-6-phenyl-6-(2-phenylethyl)-5,6-dihydro-2H-pyran-2-one]",60
8,"O=C(O)CCCC1(c2ccccc2)CC(=O)C(SCCc2ccccc2)C(=O)O1 (stereo not drawn) [4-{4-hydroxy-6-oxo-2-phenyl-5-[(2-phenylethyl)sulfanyl]-3,6-dihydro-2H-pyran-2-yl}butanoic acid]",270
9,"O=C1CC(c2ccccc2)OC(=O)C1SCCc1ccccc1 (stereo not drawn) [5,6-Dihydro-4-hydroxy-6-phenyl-3-[(2-phenylethyl)thio]-2H-pyran-2-one]",2100
10,"O=C1CC(CCc2ccccc2)(c2ccccc2)OC(=O)C1SCCc1ccccc1 (stereo not drawn) [5,6-Dihydro-4-hydroxy-6-phenyl-6-(2-phenylethyl)-3-[(2-phenylethyl)thio]-2H-pyran-2-one]",51
11,"O=C(O)CCCCC1(c2ccccc2)CC(=O)C(SCCc2ccccc2)C(=O)O1 (stereo not drawn) [5-{4-hydroxy-6-oxo-2-phenyl-5-[(2-phenylethyl)sulfanyl]-3,6-dihydro-2H-pyran-2-yl}pentanoic acid]",5
12,"CCCC1(c2ccccc2)CC(=O)C(SCc2ccccc2)C(=O)O1 (stereo not drawn) [5,6-Dihydro-4-hydroxy-6-phenyl-3-[(phenylmethyl)thio]-6-propyl-2H-pyran-2-one]",290
13,"O=C1CC(CC2CCCCC2)(c2ccccc2)OC(=O)C1SCc1ccccc1 (stereo not drawn) [6-(Cyclohexylmethyl)-5,6-dihydro-4-hydroxy-6-phenyl-3-[(phenylmethyl)thio]-2H-pyran-2-one]",137
14,"CC(C)CC1(c2ccccc2)CC(=O)C(SCCc2ccccc2)C(=O)O1 (stereo not drawn) [5,6-Dihydro-4-hydroxy-6-(2-methylpropyl)-6-phenyl-3-[(2-phenylethyl)thio]-2H-pyran-2-one]",1200
15,"CCCCC1(c2ccccc2)CC(=O)C(SCc2ccccc2)C(=O)O1 (stereo not drawn) [3-(benzylsulfanyl)-6-butyl-4-hydroxy-6-phenyl-5,6-dihydro-2H-pyran-2-one]",270
16,"CCCCC1(c2ccccc2)CC(=O)C(SCCc2ccccc2)C(=O)O1 (stereo not drawn) [6-Butyl-5,6-dihydro-4-hydroxy-6-phenyl-3-[(2-phenylethyl)thio]-2H-pyran-2-one]",400
17,"O=C1CC(c2ccccc2)(c2ccccc2)OC(=O)C1Sc1ccccc1 (stereo not drawn) [5,6-Dihydro-4-hydroxy-6,6-diphenyl-3-(phenylthio)-2H-pyran-2-one]",110
18,"CCCCCCC1(c2ccccc2)CC(=O)C(SCCc2ccccc2)C(=O)O1 (stereo not drawn) [5,6-Dihydro-6-hexyl-4-hydroxy-6-phenyl-3-[(2-phenylethyl)thio]-2H-pyran-2-one]",112
19,"NC(=O)CCCC1(c2ccccc2)CC(=O)C(SCCc2ccccc2)C(=O)O1 (stereo not drawn) [4-(3,6-Dihydro-4-hydroxy-6-oxo-2-phenyl-5-[(phenylethyl)thio]-2H-pyran-2-yl)butyramide]",1300
20,"CCCCCC1(c2ccccc2)CC(=O)C(SCCc2ccccc2)C(=O)O1 (stereo not drawn) [4-hydroxy-6-pentyl-6-phenyl-3-[(2-phenylethyl)sulfanyl]-5,6-dihydro-2H-pyran-2-one]",84
21,"O=C1CC(CCc2ccccc2)(c2ccccc2)OC(=O)C1Sc1ccccc1 (stereo not drawn) [5,6-Dihydro-4-hydroxy-6-phenyl-6-(2-phenylethyl)-3-(phenylthio)-2H-pyran-2-one]",130
22,"O=C1CC(c2ccccc2)(c2ccccc2)OC(=O)C1SCCc1ccccc1 (stereo not drawn) [5,6-Dihydro-4-hydroxy-6,6-diphenyl-3-[(2-phenylethyl)thio]-2H-pyran-2-one]",152

# — BindingDB's records for doi:10.1021/jm970615f (Parke-Davis Pharmaceutical Research, 1997)
